Results reported in the supplement of paper PMC4862054.

Experiments:
Details in all cases: incubation time: 72 h
HDQ-P1 [1] = assay: normalised response (% of control), CellTiter-Glo; higher = more viable cells (100 = DMSO, 0 = benzethonium chloride kill control)
Description: (§1)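 DSRT, 72 h incubation, CellTox Green / CellTiter-Glo readout. Signal is normalised to DMSO and benzethonium chloride controls. Value is the normalised response at dose 3.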

MFM-223 [2] = assay: as above
Description: as §1

SK-BR-3 [3] = assay: as above
Description: as §1

BT-549 [4] = assay: as above
Description: as §1

HCC1143 [5] = assay: as above
Description: as §1

CAL-120 [6] = assay: as above
Description: as §1

Hs578T [7] = assay: as above
Description: as §1

HCC1937 [8] = assay: as above
Description: as §1

MDA-MB-436 [9] = assay: as above
Description: as §1

DU-4475 [10] = assay: as above
Description: as §1

MDA-MB-468 [11] = assay: as above
Description: as §1

CAL-148 [12] = assay: as above
Description: as §1

MCF-10A [13] = assay: as above
Description: as §1

MDA-MB-453 [14] = assay: as above
Description: as §1

BT-474 [15] = assay: as above
Description: as §1

CAL-85-1 [16] = assay: as above
Description: as §1

HCC1599 [17] = assay: as above
Description: as §1

CAL-51 [18] = assay: as above
Description: as §1

MDA-MB-231 [19] = assay: as above
Description: as §1

MFM-223 [20] = assay: normalised response (% of control), CellTox Green; higher = less cell death (100 = DMSO, 0 = benzethonium chloride kill control)
In short: (§2)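 For each plate, 0.1 % DMSO was set to 100 and a positive kill control to 0. Breast cancer cell lines (20 µl suspension) were seeded into 384-well plates already holding compound at 5 concentrations in 10-fold steps over a 10,000-fold range chosen per compound, and incubated for 72 h. CellTox Green fluorescence at 485/520 nm was read before CellTiter-Glo luminescence, which followed 10 min at room temperature. Each value is the normalised signal at one concentration.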

BT-549 [21] = assay: as above
In short: as §2

HCC1143 [22] = assay: as above
In short: as §2

CAL-120 [23] = assay: as above
In short: as §2

HCC1937 [24] = assay: as above
In short: as §2

MDA-MB-436 [25] = assay: as above
In short: as §2

DU-4475 [26] = assay: as above
In short: as §2

MDA-MB-468 [27] = assay: as above
In short: as §2

MCF-10A [28] = assay: as above
In short: as §2

MDA-MB-453 [29] = assay: as above
In short: as §2

BT-474 [30] = assay: as above
In short: as §2

CAL-85-1 [31] = assay: as above
In short: as §2

HCC1599 [32] = assay: as above
In short: as §2

CAL-51 [33] = assay: as above
In short: as §2

MDA-MB-231 [34] = assay: as above
In short: as §2

HDQ-P1 [35] = assay: as above
In short: as §2

Hs578T [36] = assay: as above
In short: as §2

CAL-148 [37] = assay: as above
In short: as §2

HDQ-P1 [38] = assay: normalised response (% of control), CellTiter-Glo; higher = more viable cells (100 = DMSO, 0 = benzethonium chloride kill control); remark: listed apart in the source
Description: (§3)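 DSRT, 72 h incubation, CellTox Green / CellTiter-Glo readout. Signal is normalised to DMSO and benzethonium chloride controls. Value is the normalised response at the highest dose.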

MFM-223 [39] = assay: as above; remark: listed apart in the source
Description: as §3

SK-BR-3 [40] = assay: as above; remark: listed apart in the source
Description: as §3

BT-549 [41] = assay: as above; remark: listed apart in the source
Description: as §3

HCC1143 [42] = assay: as above; remark: listed apart in the source
Description: as §3

CAL-120 [43] = assay: as above; remark: listed apart in the source
Description: as §3

Hs578T [44] = assay: as above; remark: listed apart in the source
Description: as §3

HCC1937 [45] = assay: as above; remark: listed apart in the source
Description: as §3

MDA-MB-436 [46] = assay: as above; remark: listed apart in the source
Description: as §3

DU-4475 [47] = assay: as above; remark: listed apart in the source
Description: as §3

MDA-MB-468 [48] = assay: as above; remark: listed apart in the source
Description: as §3

CAL-148 [49] = assay: as above; remark: listed apart in the source
Description: as §3

MCF-10A [50] = assay: as above; remark: listed apart in the source
Description: as §3

MDA-MB-453 [51] = assay: as above; remark: listed apart in the source
Description: as §3

BT-474 [52] = assay: as above; remark: listed apart in the source
Description: as §3

CAL-85-1 [53] = assay: as above; remark: listed apart in the source
Description: as §3

HCC1599 [54] = assay: as above; remark: listed apart in the source
Description: as §3

CAL-51 [55] = assay: as above; remark: listed apart in the source
Description: as §3

MDA-MB-231 [56] = assay: as above; remark: listed apart in the source
Description: as §3

Q: Which results are given for `O=C1c2c(O)ccc(O)c2C(=O)c2c(NCCNCCO)ccc(NCCNCCO)c21` [Mitoxantrone] (10 nM)?
A: normalised response (HDQ-P1 [1]): 106%; normalised response (MFM-223 [2]): 94%; normalised response (SK-BR-3 [3]): 89.1%; normalised response (BT-549 [4]): 96.7%; normalised response (HCC1143 [5]): 104%; normalised response (CAL-120 [6]): 104%; normalised response (Hs578T [7]): 102%; normalised response (HCC1937 [8]): 101%; normalised response (MDA-MB-436 [9]): 92.7%; normalised response (DU-4475 [10]): 95.8%; normalised response (MDA-MB-468 [11]): 95.6%; normalised response (CAL-148 [12]): 98.6%; normalised response (MCF-10A [13]): 96.2%; normalised response (MDA-MB-453 [14]): 99.3%; normalised response (BT-474 [15]): 96.1%; normalised response (CAL-85-1 [16]): 97.8%; normalised response (HCC1599 [17]): 97.2%; normalised response (CAL-51 [18]): 93.5%; normalised response (MDA-MB-231 [19]): 99.8%; normalised response (MFM-223 [20]): 97.3%; normalised response (BT-549 [21]): 94.3%; normalised response (HCC1143 [22]): 111%; normalised response (CAL-120 [23]): 101%; normalised response (HCC1937 [24]): 91.8%; normalised response (MDA-MB-436 [25]): 93.1%; normalised response (DU-4475 [26]): 99.9%; normalised response (MDA-MB-468 [27]): 129%; normalised response (MCF-10A [28]): 107%; normalised response (MDA-MB-453 [29]): 107%; normalised response (BT-474 [30]): 101%; normalised response (CAL-85-1 [31]): 96.2%; normalised response (HCC1599 [32]): 96.5%; normalised response (CAL-51 [33]): 104%; normalised response (MDA-MB-231 [34]): 104%

Q: Which results are given for `c1cc(CN2CCCNCCNCCCNCC2)ccc1CN1CCCNCCNCCCNCC1` [Plerixafor] (10000 nM)?
A: normalised response (HDQ-P1 [35]): 104%; normalised response (MFM-223 [20]): 96.9%; normalised response (BT-549 [21]): 52.3%; normalised response (HCC1143 [22]): 101%; normalised response (CAL-120 [23]): 95.2%; normalised response (Hs578T [36]): 102%; normalised response (HCC1937 [24]): 104%; normalised response (MDA-MB-436 [25]): 95.5%; normalised response (DU-4475 [26]): 92.3%; normalised response (MDA-MB-468 [27]): 69.7%; normalised response (CAL-148 [37]): 98.5%; normalised response (MCF-10A [28]): 94.2%; normalised response (MDA-MB-453 [29]): 80.5%; normalised response (BT-474 [30]): 99.7%; normalised response (CAL-85-1 [31]): 117%; normalised response (HCC1599 [32]): 98.2%; normalised response (CAL-51 [33]): 85.7%; normalised response (MDA-MB-231 [34]): 96%; normalised response (HDQ-P1 [38]): 98.2%; normalised response (MFM-223 [39]): 87.2%; normalised response (SK-BR-3 [40]): 79.1%; normalised response (BT-549 [41]): 107%; normalised response (HCC1143 [42]): 102%; normalised response (CAL-120 [43]): 108%; normalised response (Hs578T [44]): 92.3%; normalised response (HCC1937 [45]): 97.3%; normalised response (MDA-MB-436 [46]): 97.9%; normalised response (DU-4475 [47]): 88.6%; normalised response (MDA-MB-468 [48]): 106%; normalised response (CAL-148 [49]): 91.8%; normalised response (MCF-10A [50]): 82.6%; normalised response (MDA-MB-453 [51]): 78.3%; normalised response (BT-474 [52]): 90.9%; normalised response (CAL-85-1 [53]): 96%; normalised response (HCC1599 [54]): 99.8%; normalised response (CAL-51 [55]): 124%; normalised response (MDA-MB-231 [56]): 94.2%
